From US20220409694A1, “POLYPEPTIDE, AND PREPARATION METHOD THEREFOR AND USE THEREOF” (SHANXI JINBO BIO-PHARMACEUTICAL CO., LTD., priority 2020, published 2022)

Tests used:
[1] = biological target: T1, 2019-HR1P (derived from the HR1 region of 2019-nCoV) (Severe acute respiratory syndrome coronavirus 2, UniProt P0DTC2); assay: Native PAGE (N-PAGE) of polypeptide mixed with 2019-HR1P; format: binding; conditions: 30 μM each, 37° C. for 30 minutes
[2] = system: Rs3367-CoV pseudovirus; conditions: 72 h
[3] = system: cell-cell fusion mediated by the S protein of 2019-nCoV; format: cell-based
[4] = system: SARS-CoV-2 live virus (nCoV-SH01 strain); assay: Inhibition of SARS-CoV-2 live virus on human intestinal cell line CaCO2 (viral RNA in supernatant); format: cell-based; conditions: CaCO2 cells, 48 hours, read-out: half inhibitory concentration, SARS-CoV-2 live virus
[5] = system: 2019-nCoV pseudovirus; conditions: for IC50: 72 h
[6] = system: SARS-CoV-2 live virus (nCoV-SH01 strain); parameters: species or system transgenic human-ACE2 mice; conditions: in vivo
[7] = system: SARS-CoV pseudovirus; conditions: 72 h
[8] = system: WIV1-CoV pseudovirus; conditions: 72 h
[9] = biological target: T1, 2019-HR1P (derived from the HR1 region of 2019-nCoV); assay: Circular dichroism spectroscopy of polypeptide mixed with 2019-HR1P; format: binding; conditions: 10 μM, phosphate buffer pH 7.2, 4° C.
[10] = system: 2019-nCoV live virus; conditions: for IC50: 72 h; for inhibitory activity relative to EK1, 2019-nCoV live virus: fold higher than EK1

| Compound | complex formation with 2019-HR1P in N-PAGE [1] | IC50 [2] | inhibitory effect on cell-cell fusion mediated by the S protein of 2019-nCoV (in words) [3] | IC50 [4] | IC50 [5] | SARS-CoV-2 viral load in the intestine [6] | SARS-CoV-2 viral load in the lung [6] | IC50 [7] | IC50 [8] | secondary structure of mixture with 2019-HR1P by circular dichroism [9] | SARS-CoV-2 viral titer in the intestine [6] | SARS-CoV-2 viral titer in the lung [6] | IC50 [10] | inhibitory activity relative to EK1, 2019-nCoV live virus [10] | activity in pseudovirus inhibition experiments (in words) [5] |
| --- | --- | --- | --- | --- | --- | --- | --- | --- | --- | --- | --- | --- | --- | --- | --- |
| CC[C@H](C)[C@H](NC(=O)[C@H](C)NC(=O)[C@H](CCC(=O)O)NC(=O)[C@H](CCC(=O)O)NC(=O)[C@H](CC(C)C)NC(=O)[C@H](CCCCN)NC(=O)[C@H](CCCCN)NC(=O)[C@H](CCSC)NC(=O)[C@H](CCC(=O)O)NC(=O)[C@H](Cc1ccc(O)cc1)NC(=O)[C@H](CCC(=O)O)NC(=O)[C@H](CC(C)C)NC(=O)[C@H](CC(=O)O)NC(=O)[C@H](CC(C)C)NC(=O)[C@H](Cc1ccccc1)NC(=O)[C@@H](NC(=O)[C@@H](NC(=O)[C@H](CC(N)=O)NC(=O)[C@@H](NC(=O)[C@H](CCC(N)=O)NC(=O)[C@H](CC(=O)O)NC(=O)[C@H](CC(C)C)NC(=O)[C@@H](N)CO)[C@@H](C)CC)C(C)C)[C@@H](C)O)C(=O)N[C@@H](CCCCN)C(=O)N[C@@H](CCCCN)C(=O)N[C@@H](CC(C)C)C(=O)N[C@@H](CCC(=O)O)C(=O)N[C@@H](CCC(=O)O)C(=O)N[C@@H](CO)C(=O)N[C@@H](Cc1ccc(O)cc1)C(=O)N[C@H](C(=O)N[C@@H](CC(=O)O)C(=O)N[C@@H](CC(C)C)C(=O)N[C@@H](CCCCN)C(=O)N[C@@H](CCC(=O)O)C(=O)N[C@@H](CC(C)C)C(=O)O)[C@@H](C)CC [EK1, reference compound] | formation of a six-helix bundle complex | 4000 nM | very good inhibitory effect | 573 nM | 2490 nM | significantly reduce | significantly reduce | 1890 nM | 2940 nM | formed a 6-HB complex |  |  |  |  |  |
| CC[C@H](C)[C@H](NC(=O)[C@H](C)NC(=O)[C@H](CCC(=O)O)NC(=O)[C@H](CCC(=O)O)NC(=O)[C@H](CC(C)C)NC(=O)[C@H](CCCCN)NC(=O)[C@H](CCCCN)NC(=O)[C@H](CCSC)NC(=O)[C@H](CCC(=O)O)NC(=O)[C@H](Cc1ccc(O)cc1)NC(=O)[C@H](CCC(=O)O)NC(=O)[C@H](CC(C)C)NC(=O)[C@H](CC(=O)O)NC(=O)[C@H](CC(C)C)NC(=O)[C@H](Cc1ccccc1)NC(=O)[C@@H](NC(=O)[C@@H](NC(=O)[C@H](CC(N)=O)NC(=O)[C@@H](NC(=O)[C@H](CCC(N)=O)NC(=O)[C@H](CC(=O)O)NC(=O)[C@H](CC(C)C)NC(=O)[C@@H](N)CO)[C@@H](C)CC)C(C)C)[C@@H](C)O)C(=O)N[C@@H](CCCCN)C(=O)N[C@@H](CCCCN)C(=O)N[C@@H](CC(C)C)C(=O)N[C@@H](CCC(=O)O)C(=O)N[C@@H](CCC(=O)O)C(=O)N[C@@H](CO)C(=O)N[C@@H](Cc1ccc(O)cc1)C(=O)N[C@H](C(=O)N[C@@H](CC(=O)O)C(=O)N[C@@H](CC(C)C)C(=O)N[C@@H](CCCCN)C(=O)N[C@@H](CCC(=O)O)C(=O)N[C@@H](CC(C)C)C(=O)NCC(=O)N[C@@H](CO)C(=O)NCC(=O)N[C@@H](CO)C(=O)NCC(=O)NCCOCCOCCOCCOCCC(=O)N[C@@H](CSCC(=O)O[C@H]1CC[C@@]2(C)C(=CC[C@H]3[C@@H]4CC[C@H]([C@H](C)CCCC(C)C)[C@@]4(C)CC[C@@H]32)C1)C(=O)O)[C@@H](C)CC [EK1-chol] |  | 30 nM | very good inhibitory effect | 5.5 nM | 20 nM |  |  | 10 nM | 40 nM |  | significantly reduce | significantly reduce | 36.5 nM | 67 times |  |
| CCCCCCCCCCCCCCCC(=O)NCCCC[C@H](NC(=O)CCOCCOCCOCCOCCNC(=O)CNC(=O)[C@H](CO)NC(=O)CNC(=O)[C@H](CC(C)C)NC(=O)[C@H](CCC(=O)O)NC(=O)[C@H](CCCCN)NC(=O)[C@H](CC(C)C)NC(=O)[C@H](CC(=O)O)NC(=O)[C@@H](NC(=O)[C@H](Cc1ccc(O)cc1)NC(=O)[C@H](CO)NC(=O)[C@H](CCC(=O)O)NC(=O)[C@H](CCC(=O)O)NC(=O)[C@H](CC(C)C)NC(=O)[C@H](CCCCN)NC(=O)[C@H](CCCCN)NC(=O)[C@@H](NC(=O)[C@H](C)NC(=O)[C@H](CCC(=O)O)NC(=O)[C@H](CCC(=O)O)NC(=O)[C@H](CC(C)C)NC(=O)[C@H](CCCCN)NC(=O)[C@H](CCCCN)NC(=O)[C@H](CCSC)NC(=O)[C@H](CCC(=O)O)NC(=O)[C@H](Cc1ccc(O)cc1)NC(=O)[C@H](CCC(=O)O)NC(=O)[C@H](CC(C)C)NC(=O)[C@H](CC(=O)O)NC(=O)[C@H](CC(C)C)NC(=O)[C@H](Cc1ccccc1)NC(=O)[C@@H](NC(=O)[C@@H](NC(=O)[C@H](CC(N)=O)NC(=O)[C@@H](NC(=O)[C@H](CCC(N)=O)NC(=O)[C@H](CC(=O)O)NC(=O)[C@H](CC(C)C)NC(=O)[C@@H](N)CO)[C@@H](C)CC)C(C)C)[C@@H](C)O)[C@@H](C)CC)[C@@H](C)CC)C(=O)O [EK1-plam] |  | 130 nM | very good inhibitory effect |  | 360 nM |  |  | 170 nM | 100 nM |  |  |  | 436 nM | 5 times |  |
| ANQFNSAIGKIQDSLSSTASALGKLQDVVNQNAQALNTLVKQ (SEQ ID NO. 3) [2019-HR1P, reference compound] |  |  | no activity |  |  |  |  |  |  |  |  |  |  |  | no activity |
